Data reported in article PMC7647070, “Mechanisms of QT prolongation by buprenorphine cannot be explained by direct hERG channel block” (PLoS ONE, 2020).
Like-named read-outs stand apart in the source and are kept apart here.

What was measured:
[1] = biological target: T1, hERG1a (homomeric hERG channel, IhERG) (Homo sapiens, UniProt Q12809); test: whole-cell patch clamp, tail current
T1 construct: gene KCNH2

[2] = biological target: T2, hERG1a/1b (heteromeric hERG channel, IhERG) (Homo sapiens, UniProt Q12809); test: whole-cell patch clamp, tail current
T2 construct: gene KCNH2

[3] = biological target: T2, hERG1a/1b (heteromeric hERG channel, IhERG)
[4] = biological target: T1, hERG1a (homomeric hERG channel, IhERG)

T1 sequence (Q12809 whole entry): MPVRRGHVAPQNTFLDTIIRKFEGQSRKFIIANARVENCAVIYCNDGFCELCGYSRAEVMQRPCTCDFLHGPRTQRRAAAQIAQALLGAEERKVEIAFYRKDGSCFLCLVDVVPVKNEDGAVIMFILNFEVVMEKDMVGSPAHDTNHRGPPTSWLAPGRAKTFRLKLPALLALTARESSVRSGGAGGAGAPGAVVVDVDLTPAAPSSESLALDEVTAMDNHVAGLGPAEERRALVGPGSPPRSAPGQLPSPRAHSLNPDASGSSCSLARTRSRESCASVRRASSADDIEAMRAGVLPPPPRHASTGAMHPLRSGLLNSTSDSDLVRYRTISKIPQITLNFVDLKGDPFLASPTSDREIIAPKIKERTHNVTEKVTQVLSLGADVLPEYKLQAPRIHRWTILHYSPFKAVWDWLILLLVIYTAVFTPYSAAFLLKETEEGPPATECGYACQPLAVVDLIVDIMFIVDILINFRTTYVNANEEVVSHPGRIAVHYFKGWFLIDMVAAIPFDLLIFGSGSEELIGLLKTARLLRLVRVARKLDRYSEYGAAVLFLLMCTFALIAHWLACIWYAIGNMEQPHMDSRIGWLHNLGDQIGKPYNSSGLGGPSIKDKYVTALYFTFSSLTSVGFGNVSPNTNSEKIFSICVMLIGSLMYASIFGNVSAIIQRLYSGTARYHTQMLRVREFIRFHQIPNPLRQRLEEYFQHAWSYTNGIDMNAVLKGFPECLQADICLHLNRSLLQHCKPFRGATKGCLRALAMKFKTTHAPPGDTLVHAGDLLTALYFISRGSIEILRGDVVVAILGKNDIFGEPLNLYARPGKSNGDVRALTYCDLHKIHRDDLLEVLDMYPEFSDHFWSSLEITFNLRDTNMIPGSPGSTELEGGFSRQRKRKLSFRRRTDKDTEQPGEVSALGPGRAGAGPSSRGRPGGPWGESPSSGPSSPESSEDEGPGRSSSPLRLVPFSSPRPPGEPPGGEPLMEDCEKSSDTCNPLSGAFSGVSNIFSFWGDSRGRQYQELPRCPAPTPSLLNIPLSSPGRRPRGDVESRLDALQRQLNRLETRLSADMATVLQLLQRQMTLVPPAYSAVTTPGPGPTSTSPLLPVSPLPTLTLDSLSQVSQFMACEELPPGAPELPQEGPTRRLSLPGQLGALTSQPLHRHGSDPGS
T2 sequence (Q12809 whole entry): as above
T2 sequence (Q12809 377-1159 limits assumed): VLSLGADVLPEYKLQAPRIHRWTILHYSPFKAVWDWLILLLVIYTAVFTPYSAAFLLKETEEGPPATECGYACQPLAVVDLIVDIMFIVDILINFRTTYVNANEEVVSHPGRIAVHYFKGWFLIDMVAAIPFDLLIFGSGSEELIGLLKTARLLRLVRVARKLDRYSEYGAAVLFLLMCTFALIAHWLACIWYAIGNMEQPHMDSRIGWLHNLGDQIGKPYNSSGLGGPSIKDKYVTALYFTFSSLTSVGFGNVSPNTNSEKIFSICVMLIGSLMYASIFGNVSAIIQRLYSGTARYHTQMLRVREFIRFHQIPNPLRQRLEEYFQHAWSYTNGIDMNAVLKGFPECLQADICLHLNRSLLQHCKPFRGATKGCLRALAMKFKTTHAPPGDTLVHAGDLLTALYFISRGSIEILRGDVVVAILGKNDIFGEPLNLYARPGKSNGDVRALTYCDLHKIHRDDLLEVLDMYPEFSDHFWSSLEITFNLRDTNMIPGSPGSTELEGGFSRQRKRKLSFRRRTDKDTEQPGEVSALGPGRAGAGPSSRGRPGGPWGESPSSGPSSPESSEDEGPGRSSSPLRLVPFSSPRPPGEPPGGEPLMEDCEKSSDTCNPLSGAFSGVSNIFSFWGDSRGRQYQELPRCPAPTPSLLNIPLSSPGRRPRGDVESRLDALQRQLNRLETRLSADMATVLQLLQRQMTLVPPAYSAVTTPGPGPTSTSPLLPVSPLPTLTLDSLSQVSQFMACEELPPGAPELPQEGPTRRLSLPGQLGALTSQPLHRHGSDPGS

SMILES | IC50 [1] [µM] | IC50 [2] [µM] | IC50 [3] [µM] | IC50 [4] [µM]
O=C1CC[C@@]2(O)[C@H]3Cc4ccc(O)c5c4[C@@]2(CCN3CC2CC2)[C@H]1O5 [Naltrexone] | 31.1 ± 5.4 | 32.3 ± 8.6 | – | –
CO[C@]12CC[C@@]3(C[C@@H]1[C@](C)(O)C(C)(C)C)[C@H]1Cc4ccc(O)c5c4[C@@]3(CCN1CC1CC1)[C@H]2O5 [Buprenorphine] | – | – | 6.9 ± 0.9 | 8.7 ± 0.4
